Data from patent US9527867B2, “Antibacterial biaromatic derivatives” (Actelion Pharmaceuticals Ltd., priority 2013, dated 2016).
Values after ≈ are worked out from the molar mass of the structure shown.

Assays:
Assay in all cases: Bacterial growth minimal inhibitory concentration (broth microdilution, CLSI M7-A7)
Assay type in all cases: cell-based
[1] = test system: Enterococcus faecium A949; conditions: multiply-resistant strain (in particular quinolone-resistant); for MIC: Enterococcus faecium, A949, cation-adjusted Mueller-Hinton Broth, read-out: MIC for E. faecium A949; for MIC for E. faecium A949: cation-adjusted Mueller-Hinton Broth
Protocol: (§1) Minimal Inhibitory Concentrations (MICs; mg/L) were determined in cation-adjusted Mueller-Hinton Broth by a microdilution method following the description given in “Methods for Dilution Antimicrobial Susceptibility Tests for Bacteria that Grow Aerobically”, Approved standard, 7th ed., Clinical and Laboratory Standards Institute (CLSI) Document M7-A7, Wayne, Pa., USA (2006).
(§2) All Example compounds were tested against several Gram positive and Gram negative bacteria. […] Staphylococcus aureus A798, Enterococcus faecium A949 and Acinetobacter baumannii T6474 are multiply-resistant strains (in particular quinolone-resistant), while Moraxella catarrhalis A894 is a quinolone-sensitive strain and Staphylococcus aureus ATCC29213 is a methicillin-sensitive and quinolone-sensitive strain.

[2] = test system: Acinetobacter baumannii T6474; conditions: multiply-resistant strain (in particular quinolone-resistant); for MIC: Acinetobacter baumannii, T6474, cation-adjusted Mueller-Hinton Broth; for MIC for A. baumannii T6474: cation-adjusted Mueller-Hinton Broth
Protocol: as §1, §2

[3] = test system: Staphylococcus aureus ATCC29213; conditions: methicillin-sensitive and quinolone-sensitive strain; for MIC: Staphylococcus aureus, ATCC29213, cation-adjusted Mueller-Hinton Broth, read-out: MIC for S. aureus ATCC29213; for MIC for S. aureus ATCC29213: cation-adjusted Mueller-Hinton Broth
Protocol: as §1, §2

[4] = test system: Staphylococcus aureus A798; conditions: multiply-resistant strain (in particular quinolone-resistant); for MIC: Staphylococcus aureus, A798, cation-adjusted Mueller-Hinton Broth, read-out: MIC for S. aureus A798; for MIC for S. aureus A798: cation-adjusted Mueller-Hinton Broth
Protocol: as §1, §2

[5] = test system: Moraxella catarrhalis A894; conditions: quinolone-sensitive strain; for MIC: Moraxella catarrhalis, A894, cation-adjusted Mueller-Hinton Broth; for MIC for M. catarrhalis A894: cation-adjusted Mueller-Hinton Broth
Protocol: as §1, §2

Compound | MIC [1] [µg/mL] | MIC [2] [µg/mL] | MIC [3] [µg/mL] | MIC [4] [µg/mL] | MIC [5] [µg/mL] | MIC for E. faecium A949 [1] [µg/mL] | MIC for A. baumannii T6474 [2] [µg/mL] | MIC for S. aureus ATCC29213 [3] | MIC for S. aureus A798 [4] | MIC for M. catarrhalis A894 [5]
COc1cccc(-c2cccc(CNCC[C@H]3CN(c4ccc5c(n4)NC(=O)CO5)C(=O)O3)c2)n1 [Example 41, 6-((S)-5-{2-[3-(6-methoxy-pyridin-2-yl)-benzylamino]-ethyl}-2-oxo-oxazolidin-3-yl)-4H-pyrido[3,2-b][1,4]oxazin-3-one] | 1 (≈ 2.1 µM) | 0.25 (≈ 0.526 µM) | 0.063 (≈ 0.132 µM) | 0.063 (≈ 0.132 µM) | ≤ 0.016 |  |  |  |  | 
COc1cc(-c2cccc(CNCC[C@H]3CN(c4ccc5c(n4)NC(=O)CO5)C(=O)O3)c2)ccn1 [Example 55, 6-((S)-5-{2-[3-(2-methoxy-pyridin-4-yl)-benzylamino]-ethyl}-2-oxo-oxazolidin-3-yl)-4H-pyrido[3,2-b][1,4]oxazin-3-one] | > 8 | 1 (≈ 2.1 µM) | 2 (≈ 4.21 µM) | 2 (≈ 4.21 µM) | 0.031 (≈ 0.0652 µM) |  |  |  |  | 
COc1ccc(-c2cccc(CNCC[C@H]3CN(c4ccc5c(n4)NC(=O)CO5)C(=O)O3)c2)cc1OC [Example 48, 6-((S)-5-{2-[(3′,4′-dimethoxy-biphenyl-3-ylmethyl)-amino]-ethyl}-2-oxo-oxazolidin-3-yl)-4H-pyrido[3,2-b][1,4]oxazin-3-one] | 16 (≈ 31.7 µM) | 16 (≈ 31.7 µM) | 4 (≈ 7.93 µM) | 4 (≈ 7.93 µM) | 0.125 (≈ 0.248 µM) |  |  |  |  | 
COc1cccc(-c2cc(CNCC[C@H]3CN(c4ccc5c(n4)NC(=O)CO5)C(=O)O3)ccc2O)n1 [Example 109] |  |  |  |  |  | 2 | 0.125 | 0.031 µg/mL | 0.031 µg/mL | ≦0.016 mg/L
COc1cccc(-c2cccc(CNCCc3nn(-c4ccc5c(n4)NC(=O)CO5)c(=O)o3)c2O)n1 [Example 74, 6-(5-{2-[2-hydroxy-3-(6-methoxy-pyridin-2-yl)-benzylamino]-ethyl}-2-oxo-[1,3,4]oxadiazol-3-yl)-4H-pyrido[3,2-b][1,4]oxazin-3-one] | 0.5 (≈ 1.02 µM) | 0.25 (≈ 0.51 µM) | 0.125 (≈ 0.255 µM) | 0.063 (≈ 0.128 µM) | ≤ 0.016 |  |  |  |  | 
CCOc1cccc(-c2cccc(CNCC[C@H]3CN(c4ccc5c(n4)NC(=O)CO5)C(=O)O3)c2)c1 [Example 70, 6-((S)-5-{2-[(3′-ethoxy-biphenyl-3-ylmethyl)-amino]-ethyl}-2-oxo-oxazolidin-3-yl)-4H-pyrido[3,2-b][1,4]oxazin-3-one] | 8 (≈ 16.4 µM) | 2 (≈ 4.09 µM) | 1 (≈ 2.05 µM) | 0.5 (≈ 1.02 µM) | 0.063 (≈ 0.129 µM) |  |  |  |  | 
COc1cncc(-c2cccc(CNCC[C@H]3CN(c4ccc5c(n4)NC(=O)CO5)C(=O)O3)c2)n1 [Example 91, 6-((S)-5-{2-[3-(6-methoxy-pyrazin-2-yl)-benzylamino]-ethyl}-2-oxo-oxazolidin-3-yl)-4H-pyrido[3,2-b][1,4]oxazin-3-one] | 2 (≈ 4.2 µM) | 0.063 (≈ 0.132 µM) | 0.031 (≈ 0.0651 µM) | 0.031 (≈ 0.0651 µM) | ≤ 0.016 |  |  |  |  | 
N#Cc1cccc(-c2cccc(CNCC[C@H]3CN(c4ccc5c(c4)NC(=O)CS5)C(=O)O3)c2)c1 [Example 3, 3′-({2-[(S)-2-oxo-3-(3-oxo-3,4-dihydro-2H-benzo[1,4]thiazin-6-yl)-oxazolidin-5-yl]-ethylamino}-methyl)-biphenyl-3-carbonitrile] | 0.5 (≈ 1.03 µM) | 0.125 (≈ 0.258 µM) | 0.063 (≈ 0.13 µM) | 0.063 (≈ 0.13 µM) | ≤ 0.016 |  |  |  |  | 
N#Cc1ccc(O)c(-c2cccc(CNCC[C@H]3CN(c4ccc5c(n4)NC(=O)CO5)C(=O)O3)c2)c1 [Example 45, 6-hydroxy-3′-({2-[(S)-2-oxo-3-(3-oxo-3,4-dihydro-2H-pyrido[3,2-b][1,4]oxazin-6-yl)-oxazolidin-5-yl]-ethylamino}-methyl)-biphenyl-3-carbonitrile] | > 8 | 2 (≈ 4.12 µM) | 2 (≈ 4.12 µM) | 4 (≈ 8.24 µM) | 0.125 (≈ 0.257 µM) |  |  |  |  | 
COc1cccc(-c2ccnc(CNCC[C@@H]3CN(c4ccc5c(c4)NC(=O)CS5)C(=O)O3)c2)c1 [Example 21, 6-[(R)-5-(2-{[4-(3-methoxy-phenyl)-pyridin-2-ylmethyl]-amino}-ethyl)-2-oxo-oxazolidin-3-yl]-4H-benzo[1,4]thiazin-3-one] | 1 (≈ 2.04 µM) | 0.25 (≈ 0.51 µM) | 0.125 (≈ 0.255 µM) | 0.125 (≈ 0.255 µM) | 0.031 (≈ 0.0632 µM) |  |  |  |  | 
COc1ccc(-c2cccc(CNCC[C@@H]3CN(c4ccc5c(c4)NC(=O)CS5)C(=O)O3)c2)cc1 [Example 6, 6-((R)-5-{2-[(4′-methoxy-biphenyl-3-ylmethyl)-amino]-ethyl}-2-oxo-oxazolidin-3-yl)-4H-benzo[1,4]thiazin-3-one] | 4 (≈ 8.17 µM) | 4 (≈ 8.17 µM) | 1 (≈ 2.04 µM) | 1 (≈ 2.04 µM) | 0.063 (≈ 0.129 µM) |  |  |  |  | 
COc1cncc(-c2cccc(CNCC[C@@H]3CN(c4ccc5c(c4)NC(=O)CS5)C(=O)O3)c2)c1 [Example 13, 6-((R)-5-{2-[3-(5-methoxy-pyridin-3-yl)-benzylamino]-ethyl}-2-oxo-oxazolidin-3-yl)-4H-benzo[1,4]thiazin-3-one] | 1 (≈ 2.04 µM) | 0.125 (≈ 0.255 µM) | 0.063 (≈ 0.128 µM) | 0.063 (≈ 0.128 µM) | ≤ 0.016 |  |  |  |  | 
COc1ccc(-c2cccc(CNCC[C@@H]3CN(c4ccc5c(c4)NC(=O)CS5)C(=O)O3)c2)cn1 [Example 16, 6-((R)-5-{2-[3-(6-methoxy-pyridin-3-yl)-benzylamino]-ethyl}-2-oxo-oxazolidin-3-yl)-4H-benzo[1,4]thiazin-3-one] | 2 (≈ 4.08 µM) | 1 (≈ 2.04 µM) | 0.5 (≈ 1.02 µM) | 0.5 (≈ 1.02 µM) | 0.063 (≈ 0.128 µM) |  |  |  |  | 
COc1cnnc(-c2cc(CNCC[C@H]3CN(c4ccc5c(n4)NC(=O)CO5)C(=O)O3)ccc2O)c1 [Example 89, 6-((S)-5-{2-[4-hydroxy-3-(5-methoxy-pyridazin-3-yl)-benzylamino]-ethyl}-2-oxo-oxazolidin-3-yl)-4H-pyrido[3,2-b][1,4]oxazin-3-one] | 8 (≈ 16.2 µM) | 0.125 (≈ 0.254 µM) | 0.063 (≈ 0.128 µM) | 0.063 (≈ 0.128 µM) | ≤ 0.016 |  |  |  |  | 
COc1cnnc(-c2cccc(CNCC[C@H]3CN(c4ccc5c(n4)NC(=O)CO5)C(=O)O3)c2)c1 [Example 44, 6-((S)-5-{2-[3-(5-methoxy-pyridazin-3-yl)-benzylamino]-ethyl}-2-oxo-oxazolidin-3-yl)-4H-pyrido[3,2-b][1,4]oxazin-3-one] | 8 (≈ 16.8 µM) | 0.25 (≈ 0.525 µM) | 0.25 (≈ 0.525 µM) | 0.125 (≈ 0.262 µM) | ≤ 0.016 |  |  |  |  | 
COc1cccc(-c2cccc(CNCC[C@H]3CN(c4ccc5c(n4)NC(=O)CS5)C(=O)O3)c2O)n1 [Example 95, 6-((S)-5-{2-[2-hydroxy-3-(6-methoxy-pyridin-2-yl)-benzylamino]-ethy}-2-oxo-oxazolidin-3-yl)-4H-pyrido[3,2-b][1,4]thiazin-3-one] |  |  |  |  |  | 0.125 | 0.063 | ≦0.016 mg/L | ≦0.016 mg/L | ≦0.016 mg/L
COc1cc(-c2cccc(CNCC[C@@H]3CN(c4ccc5c(c4)NC(=O)CS5)C(=O)O3)c2)nc(OC)n1 [Example 26, 6-((R)-5-{2-[3-(2,6-dimethoxy-pyrimidin-4-yl)-benzylamino]-ethyl}-2-oxo-oxazolidin-3-yl)-4H-benzo[1,4]thiazin-3-one] | 4 (≈ 7.67 µM) | 2 (≈ 3.83 µM) | 0.5 (≈ 0.959 µM) | 0.25 (≈ 0.479 µM) | 0.063 (≈ 0.121 µM) |  |  |  |  | 
N#Cc1cccc(-c2cccc(CNCC[C@@H]3CN(c4ccc5c(c4)NC(=O)CS5)C(=O)O3)c2)n1 [Example 18, 6-[3-({2-[(R)-2-oxo-3-(3-oxo-3,4-dihydro-2H-benzo[1,4]thiazin-6-yl)-oxazolidin-5-yl]-ethylamino}-methyl)-phenyl]-pyridine-2-carbonitrile] | 4 (≈ 8.24 µM) | 0.25 (≈ 0.515 µM) | 0.25 (≈ 0.515 µM) | 0.25 (≈ 0.515 µM) | 0.031 (≈ 0.0638 µM) |  |  |  |  | 
COc1ccnc(-c2cc(CNCC[C@H]3CN(c4ccc5c(n4)NC(=O)CO5)C(=O)O3)ccc2O)c1 [Example 101, 6-((S)-5-{2-[4-hydroxy-3-(4-methoxy-pyridin-2-yl)-benzylamino]-ethyl}-2-oxo-oxazolidin-3-yl)-4H-pyrido[3,2-b][1,4]oxazin-3-one] | 2 (≈ 4.07 µM) | 0.125 (≈ 0.254 µM) | ≤ 0.016 | ≤ 0.016 | ≤ 0.016 |  |  |  |  | 
N#Cc1cccc(-c2cccc(CNCCc3nn(-c4ccc5c(n4)NC(=O)CO5)c(=O)o3)c2O)n1 [Example 61, 6-[2-hydroxy-3-({2-[5-oxo-4-(3-oxo-3,4-dihydro-2H-pyrido[3,2-b][1,4]oxazin-6-yl)-4,5-dihydro-[1,3,4]oxadiazol-2-yl]-ethylamino}-methyl)-phenyl]-pyridine-2-carbonitrile] | 2 (≈ 4.12 µM) | 0.5 (≈ 1.03 µM) | 0.25 (≈ 0.515 µM) | 0.5 (≈ 1.03 µM) | ≤ 0.016 |  |  |  |  | 
COc1cccc(-c2cccc(CNCC[C@@H]3CN(c4ccc5c(c4)NC(=O)CS5)C(=O)O3)n2)n1 [Example 22, 6-((R)-5-{2-[(6′-methoxy-[2,2]bipyridinyl-6-ylmethyl)-amino]-ethyl}-2-oxo-oxazolidin-3-yl)-4H-benzo[1,4]thiazin-3-one] | 2 (≈ 4.07 µM) | 1 (≈ 2.03 µM) | 0.25 (≈ 0.509 µM) | 0.5 (≈ 1.02 µM) | 0.063 (≈ 0.128 µM) |  |  |  |  | 
